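Each compound was tested at five concentrations against cells in 96-well plates for 48 hours. TGI denotes the concentration required for complete inhibition of growth.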 Where a SMILES comes first, the peptide text is derived from it. The star is where a group is joined. OSu = O=C1CCC(=O)N1O*
Key:
Assay in all cases: NCI anticancer screen, dose series, 48 h
[1] = test system: NCI/ADR-RES ovarian
[2] = test system: M14 melanoma
[3] = test system: OVCAR-4 ovarian
[4] = test system: OVCAR-8 ovarian
[5] = test system: SNB-75 CNS
[6] = test system: U251 CNS
[7] = test system: MCF7 breast
[8] = test system: NCI-H23 lung
[9] = test system: HL-60(TB) leukemia
[10] = test system: SF-295 CNS
[11] = test system: A549 NSCLC
[12] = test system: SW-620 colon
[13] = test system: SF-268 CNS
[14] = test system: NCI-H226 lung
[15] = test system: HOP-62 NSCLC
[16] = test system: MALME-3M melanoma
[17] = test system: K-562 leukemia

| SMILES | TGI [1] [µM] | TGI [2] [µM] | TGI [3] [µM] | TGI [4] [µM] | TGI [5] [µM] | TGI [6] [µM] | TGI [7] [µM] | TGI [8] [µM] | TGI [9] [µM] | TGI [10] [µM] | TGI [11] [µM] | TGI [12] [µM] | TGI [13] [µM] | TGI [14] [µM] | TGI [15] [µM] | TGI [16] [µM] | TGI [17] [µM] |
| --- | --- | --- | --- | --- | --- | --- | --- | --- | --- | --- | --- | --- | --- | --- | --- | --- | --- |
| Nc1ncc2c(n1)-c1ccccc1OC2N1CCCCC1 (centres undefined) | > 100 | > 100 | > 100 | > 100 | > 100 | > 100 | > 100 | > 100 | > 100 | > 100 | > 100 | > 100 | > 100 | > 100 |  |  |  |
| O=C1/C(=C\c2ccc(Cl)cc2Cl)Sc2scc(-c3ccc(O)c(O)c3)[n+]21 | 35.6 | 40.6 | 35.8 | 35.2 | 53.4 | 25.5 | 73.2 | 31.3 | 29.8 | 49.2 | 44.1 | 29.7 | > 100 | 35.4 | 30.1 |  |  |
| Cc1nn(C(=O)Cc2ccccc2)c2c1C(c1ccccc1)SC(N)=N2 (centres undefined) |  | > 100 |  | > 100 | > 100 |  | > 100 | > 100 | > 100 | > 100 | > 100 | > 100 | > 100 | > 100 | > 100 | > 100 | > 100 |
| CCOC(=O)c1ccc(-c2cc(C)no2)[nH]1 | > 100 | > 100 | > 100 | > 100 | > 100 | > 100 |  | > 100 | > 100 | > 100 | > 100 | > 100 | > 100 | > 100 |  | > 100 | > 100 |
| CCOC(=O)/C(C#N)=C/c1coc2cc(C)cc(C)c2c1=O | > 100 | > 100 |  | > 100 | > 100 | > 100 |  | > 100 | > 100 | > 100 | > 100 | > 100 | > 100 | > 100 | > 100 | > 100 | > 100 |
| CCOC(=O)CCCSCCCC(=O)CCCSCCCC(=O)OCC | > 100 | > 100 | > 100 | > 100 | > 100 | > 100 | > 100 | > 100 | > 100 | > 100 | > 100 | > 100 | > 100 |  | > 100 |  | > 100 |
| C[C@]12c3c4cc(NC(=O)C(=O)NCc5ccc(-c6ccccn6)nc5)cc3Oc3cc(NC(=O)C(=O)NCc5ccc(-c6ccccn6)nc5)cc(c31)OC1C=C(NC(=O)C(=O)NCc3ccc(-c5ccccn5)nc3)C=C(O4)C12 (some centres undefined) | > 100 | > 100 | 29.8 | > 100 | 76.3 | > 100 | > 100 |  | > 100 | > 100 | > 100 | > 100 | > 100 | > 100 | > 100 |  | > 100 |
| COc1cc(OCCN(C)C)c2[nH]c(C(=O)N3CC(CCl)c4ccc(N)cc43)cc2c1 (centres undefined) | 1 | 1.13 | 1.32 |  | 0.565 | 3.32 | 0.133 | 0.316 |  |  | > 34.3 |  | 0.908 | 2.58 | 0.0507 |  | > 100 |
| CCCCCCc1cc2cc(-c3cn4ccsc4n3)c(=O)oc2cc1O | > 100 |  | > 100 | > 71.8 | > 92.7 | > 100 | > 100 | > 100 | > 100 | > 100 | > 100 | > 100 | > 89.7 | > 100 | > 100 |  | > 100 |
| NCCCCC(NC(=O)C(N)Cc1ccc(O)cc1)C(=O)NC(CCCCN)C(=O)NC(CCCCN)C(=O)ON1C(=O)CCC1=O (centres undefined) (H-YKKK-OSu; configuration not given here) |  | > 100 |  | > 100 | > 100 | > 100 | > 100 | > 100 | > 100 |  | > 100 | > 100 |  | > 100 | > 100 | > 100 | > 100 |
| N#Cc1nc(-c2cnccn2)oc1N |  | > 100 |  | > 100 | > 100 | > 100 | > 100 |  | > 100 |  | > 100 | > 100 | > 100 |  | > 100 |  | > 100 |
| COc1cccc(-c2cc(=O)c3cc(N4CCCCC4)ccc3[nH]2)c1 |  | > 100 | > 57.9 | > 100 |  | > 85.9 | > 100 | > 20.4 |  |  |  | > 100 | > 100 | 0.0652 | > 43.9 | > 100 | > 100 |
| CCOC(=O)C(=[N+]=[N-])C(=O)CN1C(=O)c2ccccc2C1=O |  | > 100 | > 100 | > 100 | > 100 | > 100 | > 100 | > 100 |  | > 100 | > 100 | > 100 | > 100 |  | > 100 |  | > 100 |

— PubChem BioAssay (NCI)
